In the supplement of paper PMC11061612 one finds Bliss excess data, which are given here for ten molecules.

Common to all, as to test: Bliss excess, mean over the matrix (fraction); higher = more synergy
The subject of experiment [1] is Hs-578-T (Breast Carcinoma). In a few lines: (§1)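 Bliss excess equals the observed combination effect minus the expected value EA + EB − EA·EB, where EA and EB are the effects of each agent alone. Combination Emax is the second-highest inhibition within the matrix. Inhibition was scaled from CellTiter-Glo 2.0 luminescence, with 0 set by vehicle wells and 1 by blank wells, after 72 hours of two-drug dosing of cells plated in 1536-well plates.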

Experiment [2] relates to HuP-T4 (Pancreatic Carcinoma). The gist of the method:
as §1

Experiment [3] has as its system MFE-296 (Endometrial Carcinoma). In a few lines:
as §1

Experiment [4] relates to Ramos-2G6-4C10 (Burkitt's Lymphoma). In a few lines:
as §1

In a further experiment the test system is 42-MG-BA (Glioblastoma). The gist of the method: as §1
For experiment [5], the system named is SNU-5 (Gastric Carcinoma). The gist of the method: as §1
The test system of experiment [6] is KYSE-520 (Esophageal Squamous Cell Carcinoma). In a few lines: as §1
In the next experiment the test system is NOS-1 (Osteosarcoma). The gist of the method:
as §1

The test system of the next experiment is T98G (Glioblastoma). The gist of the method: as §1
Experiment [7] relates to HO-1-N-1 (Oral Cavity Carcinoma). The gist of the method: as §1
The test system of experiment [8] is Daoy (Other Solid Carcinomas). The gist of the method: as §1
For experiment [9], the system named is MDA-MB-361 (Breast Carcinoma). The gist of the method:
as §1

Regarding `CN(C)CCCOc1ccc(-c2ccc3ncc4c(c3c2)n(C2CCOCC2)c(=O)n4C)cn1` [AZD0156] + CCN(CCO)CCCOc1ccc2c(Nc3cc(CC(=O)Nc4cccc(F)c4)[nH]n3)ncnc2c1 [AZD2811] (first compound max 1 µM, 7x7, partner max 1 µM), the Bliss excess in experiment [1] was -0.0708; in [2], -0.005; in experiment [3] it was -0.0356; in experiment [4] it was 0.0919; in the experiment on 42-MG-BA (Glioblastoma), 0.0813; in experiment [5], 0.0036. The Bliss excess in experiment [6] is 0.005; with NOS-1 (Osteosarcoma), -0.0114; in the experiment on T98G (Glioblastoma), -0.0655; in experiment [7], 0.0056; in [8] it was 0.0069; in experiment [9], -0.0078.

Consider `Cn1cnc2c(F)c(Nc3ccc(Br)cc3Cl)c(C(=O)NOCCO)cc21` [Selumetinib] + C=CCn1c(=O)c2cnc(Nc3ccc(N4CCN(C)CC4)cc3)nc2n1-c1cccc(C(C)(C)O)n1 [AZD1775] (first compound max 10 µM, partner max 1 µM), for which the Bliss excess was -0.0423 in experiment [1]; 0.0161 in experiment [2]; -0.059 in [3]; -0.0956 in experiment [4]; -0.0509 with 42-MG-BA (Glioblastoma); -0.0239 in [5]. The Bliss excess in experiment [6] was 0.0054; with NOS-1 (Osteosarcoma), 0.0355; with T98G (Glioblastoma), -0.0395; in experiment [7] it was -0.0206; in experiment [8], -0.0443; in [9], -0.053.

`CC1(C)CCC(CN2CCN(c3ccc(C(=O)NS(=O)(=O)c4ccc(NCC5CCOCC5)c([N+](=O)[O-])c4)c(Oc4cnc5[nH]ccc5c4)c3)CC2)=C(c2ccc(Cl)cc2)C1` [Venetoclax] + C=CCn1c(=O)c2cnc(Nc3ccc(N4CCN(C)CC4)cc3)nc2n1-c1cccc(C(C)(C)O)n1 [AZD1775] (first compound max 1 µM, partner max 1 µM): the Bliss excess in experiment [1] is -0.0347; in [2] it was -0.0443; in experiment [3] it was -0.0391; in [4] it was 0.127; in the experiment with 42-MG-BA (Glioblastoma), -0.0687; in experiment [5], -0.0649. Also, the Bliss excess in experiment [6] was -0.0907; in the experiment with NOS-1 (Osteosarcoma) it was 0.0193; with T98G (Glioblastoma) it was 0.0648; in experiment [7], 0.0912; in experiment [8], -0.0683; in experiment [9], 0.0331.

Take `CN(CCO)CC[C@H](CSc1ccccc1)Nc1ccc(S(=O)(=O)NC(=O)c2ccc(N3CCC([C@@H](O)c4ccccc4-c4ccc(Cl)cc4)CC3)cc2)cc1S(=O)(=O)C(F)(F)F` [AZD4320] + C[C@@H]1COCCN1C2=NC(=NC(=C2)C3(CC3)[S@](=N)(=O)C)C4=C5C=CNC5=NC=C4 [AZD6738] (first compound max 1 µM, 7x7, partner max 10 µM): the Bliss excess in [1] was -0.136; in [2], 0.0013; in experiment [3], 0.0178; in experiment [4] it was -0.0342; with 42-MG-BA (Glioblastoma), 0.0154; in experiment [5] it was 0.0061. Also, the Bliss excess in experiment [6] is -0.0026; in the experiment on NOS-1 (Osteosarcoma) it was 0.038; with T98G (Glioblastoma) it was -0.0468; in experiment [7], 0.026; in experiment [8] it was 0.0178; in experiment [9], -0.0402.

With `COc1cc2ncnc(Nc3ccc(F)c(Cl)c3)c2cc1OCCCN1CCOCC1` [Gefitinib] + CC(C)n1c(=O)n(C)c2cnc3cc(F)c(-c4ccc(OCCCN5CCCCC5)nc4)cc3c21 [AZD1390] (first compound max 10 µM, 7x7, partner max 0.3 µM), the Bliss excess in experiment [1] is -0.0685; in [2], -0.0574; in [3], -0.0483; in [4], -0.0626; in the experiment with 42-MG-BA (Glioblastoma), -0.0891; in [5] it was -0.0887. Besides, the Bliss excess in experiment [6] is -0.043; in the experiment on NOS-1 (Osteosarcoma), -0.063; in the experiment with T98G (Glioblastoma) it was -0.0557; in experiment [7], -0.0506; in experiment [8] it was -0.0373; in [9] it was -0.0535.

`Cc1cc2ncnn2cc1Nc1ncc2c(n1)n(C1CCOCC1)c(=O)n2C` [AZD7648] + C=CCn1c(=O)c2cnc(Nc3ccc(N4CCN(C)CC4)cc3)nc2n1-c1cccc(C(C)(C)O)n1 [AZD1775] (first compound max 10 µM, partner max 1 µM): the Bliss excess in experiment [1] was -0.121; in [2], 0.0417; in experiment [3] it was -0.0096; in [4] it was 0.0005; in the experiment on 42-MG-BA (Glioblastoma), -0.052; in experiment [5], 0.0073. The Bliss excess in experiment [6] is 0.0058; in the experiment on NOS-1 (Osteosarcoma), -0.0145; with T98G (Glioblastoma), 0.0062; in experiment [7], 0.0444; in experiment [8] it was 0.0018; in [9], -0.0854.

As to `NC1(C(=O)N[C@@H](CCO)c2ccc(Cl)cc2)CCN(c2ncnc3[nH]ccc23)CC1` [Capivasertib] + CCN(CCO)CCCOc1ccc2c(Nc3cc(CC(=O)Nc4cccc(F)c4)[nH]n3)ncnc2c1 [AZD2811] (first compound max 10 µM, 7x7, partner max 1 µM), the Bliss excess is -0.036 in [1]; -0.0614 in experiment [2]; -0.0593 in [3]; 0.139 in [4]; -0.0306 in the experiment on 42-MG-BA (Glioblastoma); -0.0103 in experiment [5]. Further, the Bliss excess in [6] is -0.0495; in the experiment on NOS-1 (Osteosarcoma), 0.0431; with T98G (Glioblastoma) it was 0.0344; in experiment [7] it was -0.046; in [8] it was 0.0146; in experiment [9], 0.0141.

Consider `COc1cccc2c1C(=O)c1c(O)c3c(c(O)c1C2=O)C[C@@](O)(C(=O)CO)C[C@@H]3O[C@H]1C[C@H](N)[C@H](O)[C@H](C)O1` [Doxorubicin] + Cc1cc2ncnn2cc1Nc1ncc2c(n1)n(C1CCOCC1)c(=O)n2C [AZD7648] (first compound max 1 µM, 7x7, partner max 10 µM), for which the Bliss excess is 0.0412 in experiment [1]; 0.0316 in [2]; -0.0119 in experiment [3]; 0.0786 in [4]; 0.0271 in the experiment with 42-MG-BA (Glioblastoma); 0.007 in [5]. Moreover, the Bliss excess in experiment [6] is -0.0086; in the experiment on NOS-1 (Osteosarcoma), 0.0202; with T98G (Glioblastoma), 0.0257; in experiment [7], 0.0808; in experiment [8], 0.0851; in experiment [9] it was 0.0255.

Turning to `CC1(C)CCC(CN2CCN(c3ccc(C(=O)NS(=O)(=O)c4ccc(NCC5CCOCC5)c([N+](=O)[O-])c4)c(Oc4cnc5[nH]ccc5c4)c3)CC2)=C(c2ccc(Cl)cc2)C1` [Venetoclax] + Cn1cnc2c(F)c(Nc3ccc(Br)cc3Cl)c(C(=O)NOCCO)cc21 [Selumetinib] (first compound max 1 µM, 7x7, partner max 3 µM), the Bliss excess is 0.0045 in experiment [1]; 0.0009 in experiment [2]; -0.0297 in [3]; -0.0144 in experiment [4]; -0.0279 in the experiment with 42-MG-BA (Glioblastoma); -0.0192 in experiment [5]. Also, the Bliss excess was -0.0836 in experiment [6]; -0.0082 in the experiment on NOS-1 (Osteosarcoma); -0.0186 with T98G (Glioblastoma); -0.0037 in experiment [7]; -0.0185 in experiment [8]; -0.0299 in [9].

Consider `CC1(C)CCC(CN2CCN(c3ccc(C(=O)NS(=O)(=O)c4ccc(NCC5CCOCC5)c([N+](=O)[O-])c4)c(Oc4cnc5[nH]ccc5c4)c3)CC2)=C(c2ccc(Cl)cc2)C1` [Venetoclax] + CN(C)CCCOc1ccc(-c2ccc3ncc4c(c3c2)n(C2CCOCC2)c(=O)n4C)cn1 [AZD0156] (first compound max 1 µM, 7x7, partner max 1 µM), for which the Bliss excess is -0.0426 in experiment [1]; -0.0099 in [2]; 0.0003 in [3]; 0.0676 in experiment [4]; 0.0057 in the experiment with 42-MG-BA (Glioblastoma); 0.0053 in [5]. Besides, the Bliss excess is -0.0218 in experiment [6]; -0.0358 with NOS-1 (Osteosarcoma); -0.0509 in the experiment on T98G (Glioblastoma); 0.0445 in experiment [7]; -0.0076 in experiment [8]; 0.0156 in experiment [9].
